Measured values taken from ChEMBL document CHEMBL1212796, “Ineffectiveness of tigecycline against persistent Borrelia burgdorferi” (2010).
In brackets after ≈: the same amount, converted by molar mass. Activity calls are given as the source filed them. The calls are words filed in the database; no cut-off is given here.

Columns and labels:
[1] = test system: Borrelia burgdorferi; assay: Antimicrobial activity against Borrelia burgdorferi N40; type: functional; details: Borreliella burgdorferi
[2] = test system: Borrelia burgdorferi; assay: Antimicrobial activity against Borrelia burgdorferi B31; type: functional; details: Borreliella burgdorferi
[3] = Reduction in ospA gene expression in heart base tissue of SCID mouse transplanted with tibiotarsal and heart base tissue from Borrelia burgdorferi infected 12.5 mg/kg treated mouse; type: functional, organism-based; design: dose 12.5 mg/kg; details: Borreliella burgdorferi, at 12.5 mg/kg
[4] = Reduction in beta-actin gene expression in heart base tissue Borrelia burgdorferi infected mouse at 50 mg/kg; type: functional, organism-based; design: dose 50 mg/kg; details: Borreliella burgdorferi
[5] = Reduction in ospA gene expression assessed as gene copies in per mg of SCID mouse ventricular/quadriceps tissue receiving Borrelia burgdorferi infected nymphal ticks from 50 mg/kg treated mouse; type: functional, organism-based; design: dose 50 mg/kg; details: Borreliella burgdorferi; Cardiac ventricle; at 50 mg/kg
[6] = Reduction in flaB gene expression in heart base tissue Borrelia burgdorferi infected mouse at 50 mg/kg; type: functional, organism-based; design: dose 50 mg/kg; details: Borreliella burgdorferi
[7] = Reduction in flaB gene expression in heart base tissue Borrelia burgdorferi infected mouse at 12.5 mg/kg; type: functional, organism-based; design: dose 12.5 mg/kg; details: Borreliella burgdorferi
[8] = Reduction in arp gene expression in heart base tissue Borrelia burgdorferi infected mouse at 50 mg/kg; type: functional, organism-based; design: dose 50 mg/kg; details: Borreliella burgdorferi
[9] = Reduction in arp gene expression in heart base tissue Borrelia burgdorferi infected mouse at 12.5 mg/kg; type: functional, organism-based; design: dose 12.5 mg/kg; details: Borreliella burgdorferi
[10] = Reduction in ospA gene expression in heart base tissue Borrelia burgdorferi infected mouse at 50 mg/kg; type: functional, organism-based; design: dose 50 mg/kg; details: Borreliella burgdorferi
[11] = Reduction in dbpA gene expression in heart base tissue Borrelia burgdorferi infected mouse at 50 mg/kg; type: functional, organism-based; design: dose 50 mg/kg; details: Borreliella burgdorferi
[12] = Reduction in ospA gene expression in heart base tissue of SCID mouse transplanted with tibiotarsal and heart base tissue from Borrelia burgdorferi infected 50 mg/kg treated mouse; type: functional, organism-based; design: dose 50 mg/kg; details: Borreliella burgdorferi, at 50 mg/kg
[13] = Reduction in oppA-2 gene expression in heart base tissue Borrelia burgdorferi infected mouse at 50 mg/kg; type: functional, organism-based; design: dose 50 mg/kg; details: Borreliella burgdorferi
[14] = Reduction in beta-Actin gene expression in heart base tissue Borrelia burgdorferi infected mouse at 12.5 mg/kg; type: functional, organism-based; design: dose 12.5 mg/kg; details: Borreliella burgdorferi

MIC [1] [µg/mL]	MIC [2] [µg/mL]	SMILES	inhibition [3]	inhibition [4]	inhibition [5]	inhibition [6]	inhibition [7]	inhibition [8]	inhibition [9]	inhibition [10]	inhibition [11]	inhibition [12]	inhibition [13]	inhibition [14]
0.048 (≈ 0.0866 µM)	0.012 (≈ 0.0216 µM)	CO/N=C(\C(=O)N[C@@H]1C(=O)N2C(C(=O)O)=C(CSc3nc(=O)c(O)nn3C)CS[C@H]12)c1csc(N)n1 [CEFTRIAXONE]	Active	–	–	–	–	–	–	–	–	–	–	–
0.78	0.39	C[C@H]1c2cccc(O)c2C(=O)C2=C(O)[C@]3(O)C(=O)C(C(N)=O)=C(O)[C@@H](N(C)C)[C@@H]3[C@@H](O)[C@@H]21.O [DOXYCYCLINE]	–	–	–	–	–	–	–	–	–	–	–	–
0.024 (≈ 0.0718 µM)	0.024 (≈ 0.0718 µM)	CC1(C)S[C@@H]2[C@H](NC(=O)Cc3ccccc3)C(=O)N2[C@H]1C(=O)O [PENICILLIN G]	–	–	–	–	–	–	–	–	–	–	–	–
0.006 (≈ 0.0102 µM)	0.006 (≈ 0.0102 µM)	CN(C)c1cc(NC(=O)CNC(C)(C)C)c(O)c2c1C[C@H]1C[C@H]3[C@H](N(C)C)C(O)=C(C(N)=O)C(=O)[C@@]3(O)C(O)=C1C2=O [TIGECYCLINE]	–	inactive	Active	Active	Active	Active	Active	Active	Active	Active	inactive	inactive
